We go through ten compounds from patent publication US20240148821A1, “PHARMACEUTICAL USE OF CYCLIC PEPTIDE COMPOUND” (CHUGAI SEIYAKU KABUSHIKI KAISHA, priority 2021, published 2024).

SMILES strings stand for the structures. pIC50: −log10 of the molar value. Numbered stars: 1 amine (or outer) side, 2 acyl side, 3 side chain; on linkers, the order of the positions; unused ones are H or OH. Bridge positions count the residues as written; N and C are the ends. Square brackets hold non-standard residues; d marks the D form. Peptide text beside a SMILES is read from it. * marks the point of attachment. hPhe(3-Cl-4-CF3) = N[C@@H](CCc1ccc(C(F)(F)F)c(Cl)c1)C(=O)O; hPhe(3-F,4-CF3) = N[C@@H](CCc1ccc(C(F)(F)F)c(F)c1)C(=O)O; NMePhe(4-Cl) = CN[C@@H](Cc1ccc(Cl)cc1)C(=O)O; NMePhe(4-Me) = CN[C@@H](Cc1ccc(C)cc1)C(=O)O; NMePhe(4-F) = CN[C@@H](Cc1ccc(F)cc1)C(=O)O; NMedβ3hAla = C[C@H](CC(=O)[*:2])N(C)[*:1]; NMeGly(cPent) = CN[C@H](C(=O)O)C1CCCC1; NMeCha = CN[C@@H](CC1CCCCC1)C(=O)O; NMeChg = CN[C@H](C(=O)O)C1CCCCC1; NMeF = CN[C@@H](Cc1ccccc1)C(=O)O; NMeD = CN[C@@H](CC(=O)O)C(=O)O; NMeL = CN[C@@H](CC(C)C)C(=O)O; NMeNva = CCC[C@H](NC)C(=O)O; NMeV = CN[C@H](C(=O)O)C(C)C; d(β3hA) = C[C@@H](N)CC(=O)O; NMeS = CN[C@@H](CO)C(=O)O; NMeA = CN[C@@H](C)C(=O)O; Piperidide = C1CCN(*)CC1; Pyrrolidide = C1CCN(*)C1; dNMeA = CN[C@H](C)C(=O)O; Ac5c = NC1(C(=O)O)CCCC1; Aze = O=C(O)[C@@H]1CCN1; Thp = NC1(C(=O)O)CCOCC1; Sar = CNCC(=O)O

This experiment concerns Human pancreatic cancer cell line AsPC-1 (G12D mutation Kras). The experiment can be described thus: AsPC-1 cell growth inhibition (AsPC-1 CGI). The class given is cell-based. Conditions: read-out: AsPC-1 cell growth inhibition, 50% growth inhibitory concentration (IC50 value); 96 hours, CellTiter-Glo, values classified in ranges. For orientation: In ATP-based viability assays light output follows the ATP content of the culture.
Description: Test compounds were serially dilated with dimethyl sulfoxide, and 200 nL was then dispensed to a U-bottom 96-well plate using Labcyte Echo. […] The cell suspension was dispensed to a. plate containing a test compound at 100 μL per well and incubated at 37° C. in a 5% carbon dioxide gas incubator. 96 hours later, 80 μL of CellTiter-Glo (Promega) was added to each well and fluorescence was measured.
Regarding `CC[C@H](C)[C@@H]1NC(=O)[C@H](C)N(C)C(=O)C[C@@H](C)NC(=O)[C@H](C2CCCC2)N(C)C(=O)C2(CCCC2)NC(=O)[C@@H]2CCCN2C(=O)[C@H](CCc2ccc(C(F)(F)F)c(Cl)c2)NC(=O)[C@@H](C)N(C)C(=O)[C@H](Cc2ccc(C)cc2)N(C)C(=O)CN(C)C(=O)CN(C)C1=O` [Compound 1465] (cyclo([Ac5c][NMeGly(cPent)][d(β3hA)][NMeA]I[Sar][Sar][NMePhe(4-Me)][dNMeA][hPhe(3-Cl-4-CF3)]P)), the pIC50 is under 6.30.

On to `CC[C@H](C)[C@@H]1NC(=O)[C@H](CC(C)C)N(C)C(=O)C[C@@H](C)N(C)C(=O)[C@H](CC(C)C)N(C)C(=O)C2(CCOCC2)NC(=O)[C@@H]2CCCN2C(=O)[C@H](CCc2ccc(C(F)(F)F)c(F)c2)NC(=O)CN(C)C(=O)[C@H](CC2CCCCC2)N(C)C(=O)CN(C)C(=O)CN(C)C1=O` [Compound 407] (cyclo(I[Sar][Sar][NMeCha][Sar][hPhe(3-F,4-CF3)]P[Thp][NMeL][NMedβ3hAla][NMeL])), for which the pIC50 is under 6.30.

`CC[C@H](C)[C@@H]1NC(=O)[C@H](CC(C)C)N(C)C(=O)C[C@@H](C(=O)N2CCCCC2)N(C)C(=O)[C@H](C2CCCCC2)N(C)C(=O)C2(CCCC2)NC(=O)[C@@H](C)NC(=O)[C@H](CCc2ccc(C(F)(F)F)c(Cl)c2)NC(=O)CN(C)C(=O)[C@H](CC2CCCCC2)N(C)C(=O)CN(C)C(=O)CN(C)C1=O` [Compound 277] ([NMeL]I[Sar][Sar][NMeCha][Sar][hPhe(3-Cl-4-CF3)][dA][Ac5c][NMeChg][NMeD]-Piperidide; lactam N-11): the pIC50 is under 6.30.

Turning to `CC[C@H](C)[C@@H]1NC(=O)[C@H](C)N(C)C(=O)C[C@@H](C)NC(=O)[C@H](C(C)C)N(C)C(=O)[C@H](Cc2ccccc2)N(C)C(=O)[C@H](CC(C)C)N(C)C(=O)[C@H](CCc2ccc(C(F)(F)F)c(F)c2)NC(=O)CN(C)C(=O)[C@H](Cc2ccc(Cl)cc2)N(C)C(=O)[C@@H]2CCN2C(=O)CN(C)C1=O` [Compound 782] (cyclo([Aze][NMePhe(4-Cl)][Sar][hPhe(3-F,4-CF3)][NMeL][NMeF][NMeV][d(β3hA)][NMeA]I[Sar])), the pIC50 is under 6.30.

Turning to `CC[C@H](C)[C@@H]1NC(=O)[C@H](C)N(C)C(=O)C[C@@H](C(=O)N2CCCCC2)N(C)C(=O)[C@H](C(C)C)N(C)C(=O)C2(CCCC2)NC(=O)[C@@H]2CCCN2C(=O)[C@H](CCc2ccc(C(F)(F)F)c(Cl)c2)NC(=O)[C@@H](C)N(C)C(=O)[C@H](Cc2ccc(F)cc2)N(C)C(=O)CN(C)C(=O)CN(C)C1=O` [Compound 1755] ([NMeA]I[Sar][Sar][NMePhe(4-F)][dNMeA][hPhe(3-Cl-4-CF3)]P[Ac5c][NMeV][NMeD]-Piperidide; lactam N-11), the pIC50 was under 6.30.

`CC[C@H](C)[C@@H]1NC(=O)[C@H](CC(C)C)N(C)C(=O)C[C@@H](C(=O)N2CCCCC2)N(C)C(=O)[C@H](C2CCCCC2)N(C)C(=O)C2(CCCC2)NC(=O)[C@@H]2CCCN2C(=O)[C@H](CCc2ccc(C(F)(F)F)c(Cl)c2)NC(=O)CN(C)C(=O)[C@H](COC)N(C)C(=O)CN(C)C(=O)CN(C)C1=O` [Compound 623] ([NMeL]I[Sar][Sar][NMeS](Me)[Sar][hPhe(3-Cl-4-CF3)]P[Ac5c][NMeChg][NMeD]-Piperidide; lactam N-11): the pIC50 was under 6.30.

Consider `COC[C@@H]1NC(=O)[C@H](CC(C)C)N(C)C(=O)C[C@@H](C(=O)N2CCCCC2)N(C)C(=O)[C@H](C2CCCCC2)N(C)C(=O)C2(CCCC2)NC(=O)[C@@H]2CCCN2C(=O)[C@H](CCc2ccc(C(F)(F)F)c(Cl)c2)NC(=O)CN(C)C(=O)[C@H](CC2CCCCC2)N(C)C(=O)CN(C)C(=O)CN(C)C1=O` [Compound 148] ([NMeL]S(Me)[Sar][Sar][NMeCha][Sar][hPhe(3-Cl-4-CF3)]P[Ac5c][NMeChg][NMeD]-Piperidide; lactam N-11), for which the pIC50 is under 6.30.

As for `CCC[C@H]1C(=O)N[C@@H]([C@@H](C)CC)C(=O)N(C)CC(=O)N(C)CC(=O)N(C)[C@@H](CC2CCCCC2)C(=O)N(C)CC(=O)N[C@@H](CCc2ccc(C(F)(F)F)c(Cl)c2)C(=O)N2CCC[C@H]2C(=O)NC2(CCCC2)C(=O)N(C)[C@@H](C2CCCCC2)C(=O)N(C)[C@H](C(=O)N2CCCC2)CC(=O)N1C` [Compound 2001] ([NMeNva]I[Sar][Sar][NMeCha][Sar][hPhe(3-Cl-4-CF3)]P[Ac5c][NMeChg][NMeD]-Pyrrolidide; lactam N-11), the pIC50 is at least 7.70.

For `CC[C@H](C)[C@@H]1NC(=O)[C@H](C)N(C)C(=O)C[C@@H](C(=O)N2CCCCC2)N(C)C(=O)[C@H](C(C)C)N(C)C(=O)C2(CCCC2)NC(=O)[C@@H]2CCCN2C(=O)[C@H](CCc2ccc(C(F)(F)F)c(Cl)c2)NC(=O)CN(C)C(=O)[C@H](Cc2ccccc2)N(C)C(=O)[C@@H]2CCCN2C(=O)CN(C)C1=O` [Compound 1753] ([NMeA]I[Sar]P[NMeF][Sar][hPhe(3-Cl-4-CF3)]P[Ac5c][NMeV][NMeD]-Piperidide; lactam N-11), the pIC50 was under 6.30.

In the case of `CC[C@H](C)[C@@H]1NC(=O)[C@H](CC(C)C)N(C)C(=O)C[C@@H](C)N(C)C(=O)[C@H](CC(C)C)N(C)C(=O)C2(CCOCC2)NC(=O)[C@@H]2CCCN2C(=O)[C@H](CCc2ccc(C(F)(F)F)c(Cl)c2)NC(=O)CN(C)C(=O)[C@H](CC2CCCCC2)N(C)C(=O)CN(C)C(=O)CN(C)C1=O` [Compound 742] (cyclo(I[Sar][Sar][NMeCha][Sar][hPhe(3-Cl-4-CF3)]P[Thp][NMeL][NMedβ3hAla][NMeL])), the pIC50 is under 6.30.
